In patent US5015661A, “Chromanes and their pharmaceutical compositions and methods” (Hoffmann-La Roche Inc., priority 1989, dated 1991):

The compounds below were run on arachidonic acid-induced mouse ear edema (assay: Mouse ear edema test (in vivo), arachidonic acid-induced). Settings: 1 mg topical, CD-1 male mice, 0.5 mg arachidonic acid 0.5 or 4 hours later, ear biopsy weight after 1 hour, read-out: EAR EDEMA % INHIB. 1 mg.
Protocol: MOUSE EAR EDEMA TEST (IN VIVO)
In this animal model system, the application of arachidonic acid to the ear results in the biosynthesis of the metabolic products […]-6,8,11,14-eicosatetraenoic acid (5-HETE), leukotriene B4 (LTB4), leukotriene C4 (LTC4), […]-5,8,10,14-eicosatetraenoic acid (12-HETE), and prostaglandin E2 (PGE2) at the site of application, followed by the influx of neutrophils into the site and the rapid development of edema within 30 to 60 minutes (See, for instance, Young, Wagner and Spries, "Tachyphylaxis in 12-O-Tetradecanoylphorbol Acetate And Arachidonic Acid-Induced Ear Edma," J. Invest. Dermatol. 80:48 (1983) and Hames, Opas and Bonney, "Arachidonic Acid MetaboIites in Mouse Ear Edma" Advances in Inflammation Research. 11:57 (1986).
CD-1 male mice weighing 15 to 25 g were employed, and they were designated as follows: (1) Control Group, in which no arachidonic acid or test compound was to be applied, (2) Arachidonic Acid-Treated Group, in which no test compound was to be applied, and (3) Treated Group, in which the test compound was to be applied first, followed by the application of arachidonic acid.
In the case of the Group (3) animals, the test compound, dissolved in acetone, was applied to the dorsal surface of the right ear of the mouse with a 25-microliter pipette or, with the dose of the test compound being varied. After 0.5 hours in some cases and 4 hours in others, the arachidonic acid was topically applied in the same manner as above to the pretreated ear areas. In each case of arachidonic acid application, an amount of 0.5 mg dissolved in 25 microliters of acetone was used. After 1 hour, the mice were sacrificed by carbon dioxide inhalation. A 6mm-diameter standard biopsy punch was used to obtain a uniform tissue sample from the ear of each mouse so treated, and the tissue samples were weighted to the nearest 0.1 mg. The percent inhibition of ear edema formation was calculated as follows: [formula]

SMILES | inhibition in vivo at 1 mg [%]
Cc1c(C)c2c(c(C)c1O)CCC(C)(C#Cc1ccccc1)O2 (racemic) [Example 1, rac-3,4-Dihydro-2,5,7,8-tetramethyl-2-(phenylethynyl)-2H-1-benzopyran-6-ol] | 45
Cc1c(C)c2c(c(C)c1O)CCC(C)(C#Cc1cccs1)O2 (racemic) [Example 4, rac-3,4-Dihydro-2,5,7,8-tetramethyl-2-[(2-thienyl)ethynyl]-2H-1-benzopyran-6-ol] | 61
Cc1c(C)c2c(c(C)c1O)CCC(C)(C#Cc1cccnc1)O2 (racemic) [Example 14, rac-3,4-Dihydro-2,5,7,8-tetramethyl-2-[(3-pyridinyl)ethynyl]-2H-1-benzopyran-6-ol] | 20
Cc1c(C)c2c(c(C)c1O)CCC(C)(C#Cc1ccccn1)O2 (racemic) [Example 15, rac-3,4-Dihydro-2,5,7,8-tetramethyl1-2-[(2-pyridinyl)ethynyl]-2H-1-benzopyran-6-ol] | 18
Cc1c(C)c2c(c(C)c1O)CCC(C)(C#Cc1csc3ccccc13)O2 (racemic) [Example 16, rac-[2-(Benzo[b]thiophen-3-yl)ethynyl]-3.4-dihydro-2,5,7,8-tetramethyl-2H-1-benzopyran-2H-1-benzopyran-6-ol] | 62
CCCCc1ccc(C#CC2(C)CCc3c(C)c(O)c(C)c(C)c3O2)s1 (racemic) [Example 31, rac-2-[(5-Butyl-2-thienyl)ethynyl]-3,4-dihydro-2,5,7,8-tetramethyl-2H-1-benzopyran-6-ol] | 24
Cc1c(C)c2c(c(C)c1O)CCC(C)(C#Cc1cccc(C(F)(F)F)c1)O2 (racemic) [Example 35, rac-2-{[3-(Trifluoromethyl)phenyl]ethynyl-3,4-dihydro-2,5,7,8-tetramethyl-2H-1-benzopyran-6-ol] | 15
CC(=O)Oc1cc(C#CC2(C)CCc3c(C)c(O)c(C)c(C)c3O2)ccc1OCc1ccccc1 (racemic) [Example 41, rac-2-{[3-Acetyloxy-4-(phenylmethoxy)phenyl]ethynyl}-3,4-dihydro-2,5,7,8-tetramethyl-2H-1-benzopyran-6-ol] | 31
Cc1c(C)c2c(c(C)c1O)CCC(C)(C#Cc1ccc(OCc3ccccc3)c(O)c1)O2 (racemic) [Example 43, rac-3,4-Dihydro-2-{[3-hydroxy-4-(phenylmethoxY)phenyl]-ethynyl}-2,5,7,8-tetramethyl-2H-1-benzopyran-6-ol] | 31
Cc1c(C)c2c(c(C)c1O)CCC(C)(c1cc3ccccc3o1)O2 (racemic) [Example 50 (CH; H, H, H), rac-2-(2-Benzofuranyl)-3,4-dihydro-2,5,7,8-tetramethyl-2H-1-benzopyran-6-ol] | 68
Cc1ccc2oc(C3(C)CCc4c(C)c(O)c(C)c(C)c4O3)cc2n1 (racemic) [Example 51, rac-3,4-Dihydro-2-(5-methylfuro[3,2[b]pyridin-2-yl)-2,5,7,8-tetramethyl-2H-1-benzopyran-6ol] | 69
Cc1c(C)c2c(c(C)c1O)CCC(C)(c1cc3ncccc3o1)O2 (racemic) [Example 52, rac-3,4-Dihydro-2-(furo[3,2-b]pyridine-2-yl)-2,5,7,8-tetramethyl-2H-1-benzopyran-6-ol] | 49
CCCc1c(O)c(C(C)=O)cc2cc(C3(C)CCc4c(C)c(O)c(C)c(C)c4O3)oc12 (racemic) [Example 53, rac-1-2-(3,4-Dihydro-6-hydroxy-2,5,7,8-tetramethyl-2H-1-benzopyran-2-yl)-6-hydroxy-7-propylbenzofuran-5-yl]ethanone] | 54
Cc1c(C)c2c(c(C)c1O)CCC(C)(CCc1cccs1)O2 (racemic) [Example 57, rac-3,4-Dihydro-2,5,7,8-tetramethyl-2-[2-(2-thienyl)ethyl]-2H-1-benzo-pyran-6-ol] | 41
Cc1c(C)c2c(c(C)c1O)CCC(C)(CCc1ccccn1)O2 (racemic) [Example 58, rac-3,4-Dihydro-2,5,7,8-tetramethyl-2-[2-(2-pyridinyl)ethyl]-2H-1-benzopyran-6-ol] | 31
Cc1c(C)c2c(c(C)c1O)CCC(C)(CCc1cccnc1)O2 (racemic) [Example 59, rac-3,4-Dihydro-2,5,7,8-tetramethyl-2-[2-(3-pyridinyl)ethyl]-2H-1-benzopyran-6-ol] | 48
Cc1c(C)c2c(c(C)c1O)CCC(C)(CCc1ccc(O)c(O)c1)O2 (racemic) [Example 61, rac-4-[2-(3,4-Dihydro-6-hydroxy-2,5,7,8-tetramethyl-2H-1-benzopyran-2-yl)ethyl]-1,2-benzenediol] | 55
Cc1c(C)c2c(c(C)c1O)CC[C@](C)(C#Cc1cccs1)O2 [Example 5, (R)-3,4-Dihydro-2,5,7,8-tetramethyl-2-[(2-thienyl)ethynyl]-2H-1-benzopvran-6-ol] | 66
Cc1c(C)c2c(c(C)c1O)CC[C@@](C)(C#Cc1cccs1)O2 [Example 13, (S)-3,4-Dihydro-2,5,7,8-tetramethyl-2-[(2-thienyl)ethynyl]-2H-1-benzopyran-6-ol] | 32
